Reference: PubChem BioAssay AID248 (DTP/NCI, 2004)
“And” between values parts separate entries of the source, which are not always exact repeats. Identical values can stand only once. Inconclusive results and toxic doses are left out. Cut-off read from the data, not from the text of the source: active = T/C of 150% or more; inactive = T/C below 125%.

Tested on: L1210 leukemia ip in BDF1 mice, survival T/C
Experiment: NCI In Vivo Anticancer Drug Screen. Data for tumor model L1210 Leukemia (intraperitoneal) in B6D2F1 (BDF1) mice
Settings: endpoint: mean survival time, higher = longer survival
How it was run: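 Transplanted-tumor mice were given test agent; controls received vehicle only. Survival readings from the two groups were divided (treated over control).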

[1] = dose: 100.0 mg/kg/injection, schedule: Q04DX002 (ip), vehicle: Klucel (hydroxypropylcellulose) (HPC)
[2] = dose: 200.0 mg/kg/injection, schedule: Q04DX002 (ip), vehicle: Klucel (hydroxypropylcellulose) (HPC)
[3] = dose: 400.0 mg/kg/injection, schedule: Q04DX002 (ip), vehicle: Klucel (hydroxypropylcellulose) (HPC)
[4] = dose: 100.0 mg/kg/injection, schedule: Q01DX001 (ip), vehicle: saline
[5] = dose: 200.0 mg/kg/injection, schedule: Q01DX001 (ip), vehicle: saline
[6] = dose: 400.0 mg/kg/injection, schedule: Q01DX001 (ip), vehicle: saline
[7] = dose: 100.0 mg/kg/injection, schedule: Q01DX009 (ip), vehicle: Klucel (hydroxypropylcellulose) (HPC)
[8] = dose: 100.0 mg/kg/injection, schedule: Q04DX003 (ip), vehicle: Klucel (hydroxypropylcellulose) (HPC)
[9] = dose: 200.0 mg/kg/injection, schedule: Q01DX009 (ip), vehicle: Klucel (hydroxypropylcellulose) (HPC)
[10] = dose: 200.0 mg/kg/injection, schedule: Q04DX003 (ip), vehicle: Klucel (hydroxypropylcellulose) (HPC)
[11] = dose: 400.0 mg/kg/injection, schedule: Q01DX009 (ip), vehicle: Klucel (hydroxypropylcellulose) (HPC)
[12] = dose: 400.0 mg/kg/injection, schedule: Q04DX003 (ip), vehicle: Klucel (hydroxypropylcellulose) (HPC)
[13] = dose: 12.5 mg/kg/injection, schedule: Q01DX009 (ip), vehicle: Klucel (hydroxypropylcellulose) (HPC)
[14] = dose: 25.0 mg/kg/injection, schedule: Q01DX009 (ip), vehicle: Klucel (hydroxypropylcellulose) (HPC)
[15] = dose: 50.0 mg/kg/injection, schedule: Q01DX009 (ip), vehicle: Klucel (hydroxypropylcellulose) (HPC)

Measured: T/C

CSc1ncnc2c1ncn2C1OC(COC(N)=O)C(O)C1O (centres undefined)
inactive: dose: 100.0 mg/kg/injection, schedule: Q01DX005 (ip), vehicle: saline 107 % of control | dose: 200.0 mg/kg/injection, schedule: Q01DX005 (ip), vehicle: saline 114 % of control

O=C1CCOc2ccccc21
inactive: dose: 100.0 mg/kg/injection, schedule: Q04DX002 (ip), vehicle: other 87 % of control | dose: 200.0 mg/kg/injection, schedule: Q04DX002 (ip), vehicle: other 90 % of control | dose: 400.0 mg/kg/injection, schedule: Q04DX002 (ip), vehicle: other 94 % of control

Nc1nc(-c2cc(Br)ccc2N=NN2CCOCC2)nc2ccc(Br)cc12
inactive: [1] 105 % of control | [2] 96 % of control | [3] 89 % of control

CN(CCc1ccccc1)C(N)=S
inactive: dose: 75.0 mg/kg/injection, schedule: Q01DX001 (ip), vehicle: acetone 96 % of control

NC(=O)c1ccc[n+](CCCl)c1
inactive: dose: 62.5 mg/kg/injection, schedule: Q01DX010 (ip), vehicle: saline 94 % of control | dose: 125.0 mg/kg/injection, schedule: Q01DX010 (ip), vehicle: saline 93 % of control

COc1ccc(CCN(C)C2CC3CCC2(C)C3(C)C)cc1OC (centres undefined)
inactive: [4] 93 % of control | [5] 96 % of control | [6] 100 % of control

COc1ccc(/C=C(\C#N)c2ccc([N+](=O)[O-])cc2)cc1[N+](=O)[O-]
inactive: [1] 105 % of control | [2] 105 % of control | [3] 102 % of control

Brc1cccc[n+]1CCC[n+]1ccccc1Br
inactive: dose: 2.2 mg/kg/injection, schedule: Q01DX Z (ip), vehicle: saline 93 % of control | dose: 3.3 mg/kg/injection, schedule: Q01DX Z (ip), vehicle: saline 87 % of control | dose: 5.0 mg/kg/injection, schedule: Q01DX Z (ip), vehicle: saline 98 % of control

O=C(/C=C/c1ccccc1Cl)c1ccc(F)cc1
inactive: dose: 100.0 mg/kg/injection, schedule: Q04DX002 (ip), vehicle: saline with Tween-80 94 % of control | dose: 200.0 mg/kg/injection, schedule: Q04DX002 (ip), vehicle: saline with Tween-80 94 % of control | dose: 400.0 mg/kg/injection, schedule: Q04DX002 (ip), vehicle: saline with Tween-80 97 % of control

COc1cc(-c2ccc(N)c(OC)c2)ccc1N
inactive: dose: 62.5 mg/kg/injection, schedule: Q01DX Z (ip), vehicle: saline 90 % of control | dose: 222.0 mg/kg/injection, schedule: Q01DX Z (ip), vehicle: methylcellulose (MC) 108 % of control | dose: 333.0 mg/kg/injection, schedule: Q01DX Z (ip), vehicle: methylcellulose (MC) 90 % of control

COC(=O)C(Br)C(Br)c1cc(OC)c(OC)c(OC)c1 (centres undefined)
inactive: dose: 100.0 mg/kg/injection, schedule: Q01DX001 (ip), vehicle: carboxymethylcellulose (CMC) 89 % of control | dose: 200.0 mg/kg/injection, schedule: Q01DX001 (ip), vehicle: carboxymethylcellulose (CMC) 93 % of control | dose: 400.0 mg/kg/injection, schedule: Q01DX001 (ip), vehicle: carboxymethylcellulose (CMC) 103 % of control

CC/C=C/C1(C(C)C)C(=O)NC(=O)NC1=O (tested in a mixture with another compound)
inactive: dose: 75.0 mg/kg/injection, schedule: Q01DX001 (ip), vehicle: saline 100 % of control | dose: 150.0 mg/kg/injection, schedule: Q01DX001 (ip), vehicle: saline 94 % of control | dose: 300.0 mg/kg/injection, schedule: Q01DX001 (ip), vehicle: saline 94 % of control

COc1ccc(NC(=O)c2ccccc2Cl)cc1
inactive: [7] 97 % of control | [8] 105 % of control | [9] 95 % of control | [10] 97 % of control | [11] 95 % of control | [12] 96 % of control

CC(=O)OC1(C)CC(C)C(O)C(C(O)CC2CC(=O)NC(=O)C2)C1 (centres undefined)
inactive: dose: 5.0 mg/kg/injection, schedule: Q01DX001 (ip), vehicle: water 98 % of control | dose: 10.0 mg/kg/injection, schedule: Q01DX001 (ip), vehicle: water 107 % of control | dose: 20.0 mg/kg/injection, schedule: Q01DX001 (ip), vehicle: water 112 % of control

O=C(/C(=C\c1ccccc1)CN1CCOCC1)c1ccc(Br)cc1
inactive: [13] 96 % of control | [14] 93 % of control | [15] 91 % of control | dose: 100.0 mg/kg/injection, schedule: Q04DX003 (ip), vehicle: saline with Tween-80 87 % of control | dose: 200.0 mg/kg/injection, schedule: Q04DX003 (ip), vehicle: saline with Tween-80 93 % of control

Ic1ccc([I+]c2ccc(I)cc2)cc1
inactive: [1] 106 % of control | [2] 106 % of control | [3] 106 % of control

CNc1ccccc1C(=O)N/N=C/c1ccc(O)c(OC)c1
inactive: [1] 99 % of control | [2] 93 % of control | [3] 96 % of control

O=C(O)C(Oc1ccccc1O)C(=O)O
inactive: dose: 100.0 mg/kg/injection, schedule: Q04DX003 (ip), vehicle: saline 95 % of control | dose: 200.0 mg/kg/injection, schedule: Q04DX003 (ip), vehicle: saline 93 % of control

OCCNc1nc2ccccc2c2ccccc12
inactive: dose: 75.0 mg/kg/injection, schedule: Q01DX001 (ip), vehicle: carboxymethylcellulose (CMC) 98 % of control | dose: 150.0 mg/kg/injection, schedule: Q01DX001 (ip), vehicle: carboxymethylcellulose (CMC) 112 % of control

Cc1[nH]c2ccccc2c1C(c1ccccc1O)c1c(C)[nH]c2ccccc12
inactive: [7] 97 % of control | [9] 103 % of control | [11] 101 % of control

O=[N+]([O-])c1ccc(C2=CSC3=NCCN23)cc1
inactive: dose: 5.0 mg/kg/injection, schedule: Q01DX001 (ip), vehicle: saline 97 % of control | dose: 10.0 mg/kg/injection, schedule: Q01DX001 (ip), vehicle: saline 95 % of control | dose: 20.0 mg/kg/injection, schedule: Q01DX001 (ip), vehicle: saline 95 % of control | dose: 25.0 mg/kg/injection, schedule: Q01DX009 (ip), vehicle: saline 110 % of control | dose: 40.0 mg/kg/injection, schedule: Q01DX001 (ip), vehicle: saline 97 % of control | dose: 50.0 mg/kg/injection, schedule: Q01DX009 (ip), vehicle: saline 95 % of control

COC(=O)c1cc(/C=C/c2ccccc2)ccc1[N+](=O)[O-]
inactive: dose: 50.0 mg/kg/injection, schedule: Q04DX003 (ip), vehicle: alcohol 90 % of control | dose: 100.0 mg/kg/injection, schedule: Q04DX003 (ip), vehicle: alcohol 101 % of control | dose: 200.0 mg/kg/injection, schedule: Q04DX003 (ip), vehicle: alcohol 104 % of control

CC1CC(C)(C)NC(=S)O1 (centres undefined)
inactive: dose: 15.0 mg/kg/injection, schedule: Q01DX001 (ip), vehicle: carboxymethylcellulose (CMC) 101 % of control | dose: 30.0 mg/kg/injection, schedule: Q01DX001 (ip), vehicle: carboxymethylcellulose (CMC) 102 % of control

COc1ccccc1CCC=O
inactive: dose: 50.0 mg/kg/injection, schedule: Q01DX001 (ip), vehicle: saline 96 % of control | [4] 96 % of control | [5] 102 % of control | [6] 102 % of control

Clc1cccc(/C=C2\c3cc(Cl)ccc3-c3c(Cl)cc(Cl)cc32)c1
inactive: dose: 100.0 mg/kg/injection, schedule: Q01DX001 (ip), vehicle: Klucel (hydroxypropylcellulose) (HPC) 96 % of control | [7] 106 % of control | [8] 97 % of control | dose: 200.0 mg/kg/injection, schedule: Q01DX001 (ip), vehicle: Klucel (hydroxypropylcellulose) (HPC) 93 % of control | [9] 98 % of control | [10] 101 % of control | dose: 400.0 mg/kg/injection, schedule: Q01DX001 (ip), vehicle: Klucel (hydroxypropylcellulose) (HPC) 93 % of control | [11] 98 % of control | [12] 101 % of control

Clc1ccc(Cl)c(-c2csc(-c3ccncc3)n2)c1
inactive: [14] 116 % of control | [15] 100 % of control | [7] 97 % of control and 103 % of control

CSc1nnc([N+](=O)[O-])s1
inactive: dose: 6.25 mg/kg/injection, schedule: Q01DX009 (ip), vehicle: Klucel (hydroxypropylcellulose) (HPC) 94 % of control | [13] 90 % of control

Nn1c(-c2cccc(O)c2)nnc1-c1cccc(O)c1
inactive: [4] 104 % of control | [5] 95 % of control | [6] 101 % of control

CCC1(NS(=O)(=O)c2ccc(NC(C)=O)cc2)C(=O)N(C)C(=O)N(C)C1=O
inactive: [4] 95 % of control | [5] 91 % of control | [6] 91 % of control
